Results on 4 compounds are retold here after patent US5602146A, “4-iminoquinolines, processes for their preparation, and their use” (Hoechst Aktiengesellschaft, priority 1992, dated 1997).

One assay relates to HIV. The experiment in a line: Testing of preparations against HIV in a cell culture (T-Cell culture assay). Format: cell-based. Conditions: Human immunodeficiency virus 1, 72 h; HIV-infected lymphocytes, 37° C. for 3 days; lowest concentration at which no giant cells occurred; read-out: T-Cell culture assay Minimum inhibitory concentration. The method, then: Testing of preparations against HIV in a cell culture
Description of the method
The complete medium additionally contains 20% of fetal calf serum and 40 IU/ml of recombinant interleukin 2. Cells:
Lymphocytes isolated from fresh donor blood by means of Ficol® gradient centrifugation are cultured, with addition of […] of phytohemagglutinin (Wellcome) in the complete medium at 37° C. under 5% of CO2 for 36 hours. After addition of 10% of dimethyl sulfoxide, the cells are frozen at a cell density of 5×10^6 and stored in liquid nitrogen. For the experiment, the cells are thawed, washed in RPMI medium and cultured in the complete medium for 3-4 days.
The test preparations were dissolved in dimethyl sulfoxide in a concentration of 16.7 mg/ml and diluted to 1 mg/ml in complete medium.
0.4 ml of medium was initially introduced into 24-well multiwell dishes. After addition of 0.1 ml of the dissolved preparation into the upper row of the dish, a geometric dilution series was produced by transferring in each case 0.1 ml. Preparation-free controls always contained 0.4 ml of complete medium with 0.5% of dimethyl sulfoxide.
Lymphocyte cultures having a cell count of 5×10^5 cells/ml were infected by addition of 1/50 of the volume of supernatant from HIV-infected lymphocyte cultures. The titer of these culture supernatants was determined by end point dilution with 1-5×10^6 infectious units/ml. After incubation at 37° C. for 30 minutes, the infected lymphocytes were centrifuged off and taken up again in the same volume of medium. In each case 0.6 ml of this cell suspension was introduced into each of the depression walls of the test plate. The batches were incubated at 37° C. for 3 days.
The infected cell cultures were examined under the microscope for the presence of giant cells, which indicate active multiplication of the virus in the culture. The lowest concentration of preparation at which no giant cells occurred was determined as the inhibitory concentration against HIV. As a control, the supernatants from the culture plates were investigated for the presence of the HIV antigen with the aid of an HIV antigen test in accordance with the manufacturer's information (Organon).

Assay [1] deals with T1, HIV "Reverse Transcriptase" (Human immunodeficiency virus type 1 group M subtype B, UniProt P04585).
T1 construct: purchased HT-Biotechnology Ltd., Cambridge, UK; host or cells: E. coli
Nature of the assay: Inhibition of HIV "Reverse Transcriptase" (Scintillation Proximity Assay). The format is biochemical. As to conditions: RT-SPA, RT from HIV cloned in E. coli, 60 minutes (37° C.). As for the experimental part:
Investigation of the substances for inhibition of HIV "Reverse Transcriptase"
The activity of reverse transcriptase (RT) was determined with the aid of a "Scintillation Proximity Assay" (SPA). The reagent kit for the RT-SPA was obtained from Amersham/Buchler (Braunschweig). The enzyme RT (from HIV cloned in E. coli) originated from HT-Biotechnology Ltd., Cambridge, UK.
The test was carried out in accordance with the method manual of the manufacturer Amersham--with the following modifications:
bovine serum albumin was added to the "assay" buffer to the final concentration of 0.5 mg/ml.
the test was carried out in Eppendorf reaction vessels with a batch volume of […].
the RT concentrate of the manufacturer (5000 U/ml) was diluted to an activity of 15 U/ml in tris-HCl buffer 20 mM; pH 7.2; 30% of glycerol.
the incubation time for the batches was 60 minutes (37° C.).
after the reaction had been stopped and after "development" with the bead suspension, […] of the batch were transferred to 4.5 ml of tris-HCl buffer, 10 mM; pH 7.4; 0.15M NaCl, and the tritium activity was measured in a β-counter.
Testing of the substances:
For a preliminary test of the inhibitor activity, the substances were dissolved in dimethyl sulfoxide (stock solution c=1 mg/ml) and tested in a dilution in dimethyl sulfoxide of 10^-1, 10^-2, 10^-3 and the like to determine IC50 values, the inhibitor stock solutions were further diluted in tris-HCl buffer, 50 mM, pH 8 and tested in suitable concentrations. The concentration associated with 50% enzyme inhibition was determined from the graph of RT activity against Log Cinh.
For orientation: Scintillation proximity formats need no separation of bound from free tracer.

Molecules are shown by their SMILES. ≈ marks a conversion by molar mass, not a printed value.

A word on the IC50: it is the midpoint of a concentration-inhibition curve. Read a low IC50 as inhibition by little substance. `CCON=C1c2cc(Cl)ccc2NC(=S)C12CCC2` [Example 115]: in the assay on HIV, the MIC was determined as 0.04 µg/mL (≈ 0.136 µM). The IC50 in assay [1] lay in the range of 3.39 to 33.9 nM.
The like results for `CCC1(CC)C(=O)Nc2ccc(Cl)cc2C1=NOC(C)C` [Example 119] were, in that order, 0.008 µg/mL (≈ 0.0259 µM) and 3.24 to 32.4 nM.
The like results for `CCON=C1c2cc(OCC)ccc2NC(=NO)C1(C)C` [Example 124] were, in that order, 0.4 µg/mL (≈ 1.37 µM) and roughly 343 nM.
The corresponding values for `CCON=C1c2cc(Cl)ccc2N=C(Nc2ccccc2)C1(C)C` [Example 131] are 1 µg/mL (≈ 2.93 µM) and 29.3 to 293 nM.
